Values quoted from earlier work as cited in PubChem BioAssay AID1259409 (Chemical Carcinogenesis Research Information System (CCRIS), 2018).

Tested on: rodent chemically induced tumor inhibition, incidence and multiplicity
Test: CCRIS tumor inhibitor studies
Conditions: Carcinogen: DIETHYLNITROSAMINE, 55-18-5, 684-93-5, N-BUTYL-N-(4-HYDROXYBUTYL)NITROSAMINE, 3817-11-6, Carcinogen: DIETHYLNITROSAMINE, 55-18-5, 684-93-5, N-BUTYL-N-(4-HYDROXYBUTYL)NITROSAMINE, 3817-11-6, Dose [Inhibitor]: 0, Route [Inhibitor]: ORAL, Species: RAT

Question: For `CCCCCCCCCCCCC(=O)COC1=C(O)C(=O)O[C@@H]1[C@@H](O)CO`, which “tumour outcome (control, treated, inhibition, significance)” value (N-METHYL-N-NITROSOUREA, DIMETHY, N-METHYL-N-NITROSOUREA, DIMETHY, 1% IN THE DIET FOR 24 WK BEGINNING 1 DAY POST CARCINOGEN TREATMENT (STUDY DURATION: 28 WK), Strain/Sex: F344/MALE, Target Tissue: Type of Lesion: URINARY BLADDER: PAPILLOMA, Dose [Carcinogen]: 100 MG/KG BW DEN ONCE FOLLOWED BY 20 MG/KG BW MNU 4 TIMES AND 0.05% BBN IN DRINKING WATER DURING FIRST 2 WK THEN 40 MG/K, Promoter: NONE USED) is on record?
Answer: 7%, 0%, 100%, not significant

Question: What about the “tumour outcome (control, treated, inhibition, significance)” value (N-METHYL-N-NITROSOUREA, DIMETHY, N-METHYL-N-NITROSOUREA, DIMETHY, 1% IN THE DIET FOR 30 D BEGINNING 1 D PRIOR TO CARCINOGEN TREATMENT (STUDY DURATION: 28 WK), Strain/Sex: F344/MALE, Target Tissue: Type of Lesion: THYROID: CARCINOMA, Dose [Carcinogen]: 100 MG/KG BW DEN ONCE FOLLOWED BY 20 MG/KG BW MNU 4 TIMES AND 0.05% BBN IN DRINKING WATER DURING FIRST 2 WK THEN 40 MG/K, Promoter: NONE USED) of the same compound?
Answer: 7%, 0%, 100%, not significant

Question: And the “tumour outcome (control, treated, inhibition, significance)” value (N-METHYL-N-NITROSOUREA, DIMETHY, N-METHYL-N-NITROSOUREA, DIMETHY, 1% IN THE DIET FOR 30 D BEGINNING 1 DAY PRIOR TO CARCINOGEN TREATMENT (STUDY DURATION: 28 WK), Strain/Sex: F344/ MALE, Target Tissue: Type of Lesion: URINARY BLADDER: PAPILLOMA, Dose [Carcinogen]: 100 MG/KG BW DEN ONCE FOLLOWED BY 20 MG/KG BW MNU 4 TIMES AND 0.05% BBN IN DRINKING WATER DURING FIRST 2 WK THEN 40 MG/K, Promoter: NONE USED)?
Answer: 7%, 0%, 100%, not significant

Question: What about the “tumour outcome (control, treated, inhibition, significance)” value (N-METHYL-N-NITROSOUREA, DIMETHY, N-METHYL-N-NITROSOUREA, DIMETHY, 1% IN THE DIET FOR 30 D BEGINNING 1 DAY PRIOR TO CARCINOGEN TREATMENT (STUDY DURATION: 28 WK), Strain/Sex: F344/MALE, Target Tissue: Type of Lesion: LARGE INTESTINE: CARCINOMA, Dose [Carcinogen]: 100 MG/KG BW DEN ONCE FOLLOWED BY 20 MG/KG BW MNU 4 TIMES AND 0.05% BBN IN DRINKING WATER DURING FIRST 2 WK THEN 40 MG/K, Promoter: NONE USED) of the same compound?
Answer: 7%, 7%, 0%, not significant

Question: And the “tumour outcome (control, treated, inhibition, significance)” value (N-METHYL-N-NITROSOUREA, DIMETHY, N-METHYL-N-NITROSOUREA, DIMETHY, 1% IN THE DIET FOR 30 D BEGINNING 1 DAY PRIOR TO CARCINOGEN TREATMENT (STUDY DURATION: 28 WK), Strain/Sex: F344/MALE, Target Tissue: Type of Lesion: SMALL INTESTINE: ADENOMA, Dose [Carcinogen]: 100 MG/KG BW DEN ONCE FOLLOWED BY 20 MG/KG BW MNU 4 TIMES AND 0.05% BBN IN DRINKING WATER DURING FIRST 2 WK THEN 40 MG/K, Promoter: NONE USED)?
Answer: 33%, 21%, 36%, not significant

Question: And the “tumour outcome (control, treated, inhibition, significance)” value (N-METHYL-N-NITROSOUREA, DIMETHY, N-METHYL-N-NITROSOUREA, DIMETHY, 1% IN THE DIET FOR 30 DAYS BEGINNING 1 D PRIOR TO CARCINOGEN TREATMENT (STUDY DURATION: 28 WK), Strain/Sex: F344/MALE, Target Tissue: Type of Lesion: SMALL INTESTINE: CARCINOMA, Dose [Carcinogen]: 100 MG/KG BW DEN ONCE FOLLOWED BY 20 MG/KG BW MNU 4 TIMES AND 0.05% BBN IN DRINKING WATER DURING FIRST 2 WK THEN 40 MG/K, Promoter: NONE USED)?
Answer: 7%, 14%, -100%, not significant

Question: And the “tumour outcome (control, treated, inhibition, significance)” value (N-METHYL-N-NITROSOUREA, DIMETHY, N-METHYL-N-NITROSOUREA, DIMETHY, 1% IN THE DIET FOR 30 DAYS BEGINNING 1 DAY PRIOR TO CARCINOGEN TREATMENT (STUDY DURATION: 28 WK), Strain/Sex: F344/MALE, Target Tissue: Type of Lesion: URINARY BLADDER: CARCINOMA)?
Answer: 7%, 0%, 100%, not significant

Question: And the “tumour outcome (control, treated, inhibition, significance)” value (N-METHYL-NITROSOUREA, DIMETHYLH, N-METHYL-NITROSOUREA, DIMETHYLH, 1% IN THE DIET FOR 30 DAYS BEGINNING 1 DAY PRIOR TO CARCINOGEN TREATMENT (STUDY DURATION: 28 WK), Strain/Sex: F344/MALE, Target Tissue: Type of Lesion: LARGE INTESTINE: ADENOMA, Dose [Carcinogen]: 100 MG/KG BW DEN ONCE FOLLOWED BY 20 MG/KG BW MNU 4 TIMES AND 0.05% BBN IN DRINKING WATER DURING FIRST 2 WK THEN 40 MG/K, Promoter: NONE USED)?
Answer: 27%, 29%, -7%, not significant
